From BindingDB's records for doi:10.1016/j.ejmech.2023.115180 (Damanhour University, 2023)

Assay: Inhibition of LOX (unknown origin) using arachidonic/linoleic acid as substrate preincubated for 5 mins followed by substrate addition measured after 10 mins by absorbance based assay

IC50 | SMILES
2400 nM | Nc1c(C(=O)N/N=C/c2ccccc2)cnn1-c1ccc(S(N)(=O)=O)cc1
2500 nM | Nc1c(C(=O)N/N=C/c2cccs2)cnn1-c1ccc(S(N)(=O)=O)cc1
